Results from patent US20260209260A1, “VECTORIZED NHC IRIDIUM(III) COMPLEXES AND USE THEREOF IN PHOTODYNAMIC THERAPY AND/OR DIAGNOSTIC” (CENTRE NATIONAL DE LA RECHERCHE SCIENTIFIQUE, priority 2022, published 2026).
Where two headings read alike, the source gives them in different places.

How the values were obtained:
[1] = test system: MGHU3 bladder cancer cells; assay: Cell viability assay (MTT), dark and blue light; type: cell-based, Human; conditions: for SI (vs MC3T3) MGHU3 Blue / SI (vs NIH-3T3) MGHU3 Blue: blue light 458 nm; for Photosensitizing index (PI) MGHU3: dark vs blue light 458 nm
Method in brief: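 Two parallel arms: continuous 72 h dark exposure, or 8 h preincubation followed by 10 min blue light at 458 nm (9.6 W LEDs) and further dark incubation to 72 h. Final DMSO 0.1% (v/v); MTT formazan read at 570 nm, triplicate runs repeated at least three times.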

[2] = test system: DU-145 prostate cancer cells (PSMA-negative); assay: Cell viability assay (MTT), dark and blue light; type: cell-based, Human; conditions: for Photosensitizing index (PI): DU145, dark vs blue light; for SI (vs MC3T3) DU145 Blue / SI (vs NIH-3T3) DU145 Blue: blue light 458 nm
Method in brief: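 Cells seeded 5,000–10,000/well, treated in 0.1% (v/v) DMSO either 72 h in dark or 8 h dark, 10 min 458 nm blue LED irradiation (9.6 W), then dark to 72 h. Viability by MTT, absorbance 570 nm; at least three independent experiments in triplicate.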

[3] = Singlet oxygen (1O2) production, ABDA indicator, blue LED 458 nm; conditions: for consumption of ABDA (1O2 production): 4.5 mWcm^−2; for depletion of the ABDA absorbance at 380 nm (1O2 production): 4.5 mWcm^−2, 5-45 min, PBS pH 7.4
Protocol: The detection of […] generation of iridium complexes was measured with 9,10-anthracenediyl-bis(methylene)dimalonic acid (ABDA) as an ^1O2 indicator and Ru(bpy)3Cl2 as a standard according to a modified reported method. Experiments were conducted using ABDA (50 μM) in phosphate buffered solution (PBS, pH 7.4), the respective iridium complex, i.e. (I-e), (I-g), (I-h), (I-j), (II-e), (II-g), (II-h), (II-j), (III-i), (III-j), (III-k), (III-h), (IV-i), (IV-j), (IV-k), (IV-h) and Ru(bpy)3Cl2 (5 μM) in a mixture of H2O/CH3CN (50/50) with a ratio ABDA/complex of […] and a final volume of 3 mL. ABDA oxidation was monitored by UV-vis spectrophotometry. The samples were irradiated with a blue custom-made LED plate (458 nm, 4.5 mWcm^−2). During irradiation UV-vis absorption spectra were recorded at 5, 10, 15, 20, 30 and 45 min. The ^1O2 generation was followed by monitoring the absorption spectral change at 380 nm of ABDA versus time.

[4] = test system: PSMA-positive cells (C4-2b and 22Rv1); assay: Cell viability assay (MTT), summary over PSMA-positive cancer cells; type: cell-based, Human; conditions: blue light 458 nm; read-out: GI50 mean over PSMA-positive cancer cells, irradiated
Protocol: (§1) Cells were grown in humidified incubators at 37° C. in 5% CO2. Murine MC3T3 osteoblast and NIH-3T3 fibroblast cells-used as non-tumor cell models-were cultured in a-MEM medium and DMEM medium supplemented with 10% fetal bovine serum (FBS) and 1% Penicillin/Streptomycin (P/S) antibiotics, respectively. Human T24 bladder, MGHU3 bladder, Scaber bladder, A549 lung, MCF7 breast, MiaPaCa2 pancreas cancer cells were cultured in DMEM medium supplemented with 10% FBS and 1% P/S antibiotics. Human ASPC-1 pancreas, PC-3 prostate, DU-145 prostate, C4-2B prostate and 22rV1 prostate cancer cells were cultured in RPMI medium supplemented with 10% FBS and 1% P/S antibiotics. Human Hela cervix and HepG2 liver cancer cells were cultured EMEM medium supplemented with 10% FBS and 1% P/S antibiotics.
(§2) MTT reagent (3-(4,5-dimethylthiazol-2-yl)-2,5-diphenyltetrazolium bromide) was used to determine cell death as originally described by Mosmann. […] The concentration of the complexes was calculated based on the elemental composition of the complexes determined by the elemental analyses. […] After solubilization with 500 μL of DMSO, formazan was quantified spectrophotometrically with a microplate reader at 570 nm absorbance (ClarioSTAR, BMG LabTech). […] All the results were calculated from data obtained in at least three independent experiments performed in triplicate. […]

[5] = test system: PSMA-negative cells (PC-3 and DU145); assay: Cell viability assay (MTT), summary over PSMA-negative cancer cells; type: cell-based, Human; conditions: blue light 458 nm; read-out: GI50 mean over PSMA-negative cancer cells, irradiated
Protocol: as §1, §2

[6] = test system: MiaPaCa2 pancreas cancer cells; assay: Cell viability assay (MTT), dark and blue light; type: cell-based, Human; conditions: for Photosensitizing index (PI): MiaPaCa2, dark vs blue light; for GI50: read-out: GI50
Method in brief: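 Cells were either kept dark for the full 72 h with complex or given 10 min irradiation after 8 h dark pre-incubation, then held dark to 72 h. DMSO fixed at 0.1% (v/v); MTT formazan measured at 570 nm; ≥3 independent triplicate experiments.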

[7] = 8 h in the dark, blue light 458 nm 10 min, then dark up to 72 h, read-out: GI50 MGHU3 Blue
[8] = in the dark, 72 h, read-out: GI50 MGHU3 Dark
[9] = 8 h in the dark, blue light 458 nm 10 min, then dark up to 72 h, read-out: GI50 DU145 Blue
[10] = DU145, blue light, read-out: GI50
[11] = in the dark, 72 h, read-out: GI50 DU145 Dark

Structure (SMILES): COC(=O)c1ccc2[n+](c1)[Ir-3]13([c]4ccccc4-2)([c]2ccccc2-c2ccc(C(=O)OC)c[n+]21)[c]1n(CCCNC(=O)CCCC[C@@H]2SC[C@@H]4NC(=O)N[C@@H]42)cc[n+]1-c1cccc[n+]13.F[P-](F)(F)(F)(F)F [I-e]
- GI50 [1, 7]: 17.8 µM
- SI (vs MC3T3) MGHU3 Blue [1]: 2.3
- SI (vs NIH-3T3) MGHU3 Blue [1]: 7.8
- SI (vs MC3T3) MGHU3 Dark ([1]; dark): <1
- SI (vs NIH-3T3) MGHU3 Dark ([1]; dark): >2.5
- Photosensitizing index (PI) MGHU3 [1]: >5.6
- GI50 [1, 8]: > 100 µM

Structure (SMILES): F[P-](F)(F)(F)(F)F.O=C(CCCC[C@@H]1SC[C@@H]2NC(=O)N[C@@H]21)NCCCn1cc[n+]2[c]1[Ir-3]13([c]4ccccc4-c4ccc5ccccc5[n+]41)([c]1ccccc1-c1ccc4ccccc4[n+]13)[n+]1ccccc1-2 [I-g]
- GI50 [1, 7]: 4.3 µM
- SI (vs NIH-3T3) MGHU3 Blue [1]: 14.3
- SI (vs MC3T3) MGHU3 Dark ([1]; dark): 2.2
- Photosensitizing index (PI) MGHU3 [1]: 5.9
- GI50 [1, 8]: 25.4 µM

Structure (SMILES): F[P-](F)(F)(F)(F)F.O=C(CCCC[C@@H]1SC[C@@H]2NC(=O)N[C@@H]21)NCCCn1cc[n+]2[c]1[Ir-3]13([c]4ccccc4-c4c5ccccc5cc[n+]41)([c]1ccccc1-c1c4ccccc4cc[n+]13)[n+]1ccccc1-2 [I-h]
- GI50 [1, 7]: 1.6 µM
- SI (vs MC3T3) MGHU3 Dark ([1]; dark): 1.8
- Photosensitizing index (PI) MGHU3 [1]: 16.7
- GI50 [1, 8]: 26.7 µM

Structure (SMILES): F[P-](F)(F)(F)(F)F.O=C(CCCC[C@@H]1SC[C@@H]2NC(=O)N[C@@H]21)NCCCn1cc[n+]2[c]1[Ir-3]13([c]4ccccc4-c4sc5ccccc5[n+]41)([c]1ccccc1-c1sc4ccccc4[n+]13)[n+]1ccccc1-2 [I-k]
- GI50 [1, 7]: 2.9 µM
- SI (vs MC3T3) MGHU3 Blue [1]: 6.8
- SI (vs NIH-3T3) MGHU3 Blue [1]: 10.7
- Photosensitizing index (PI) MGHU3 [1]: 15.9
- GI50 [1, 8]: 46.1 µM

Structure (SMILES): F[P-](F)(F)(F)(F)F.O=C(O)CC[C@H](NC(=O)N[C@@H](CCCCNC(=O)CCn1cc[n+]2[c]1[Ir-3]13([c]4cccc5ccc6ccc[n+]1c6c45)([c]1cccc4ccc5ccc[n+]3c5c14)[n+]1ccccc1-2)C(=O)O)C(=O)O [III-i]
- GI50 [2, 9]: 8.2 µM
- GI50 [2, 10]: 8.16 µM
- Photosensitizing index (PI) [2]: 5.6
- GI50 ([2]; DU145, dark, read-out: GI50): 45.3 µM
- SI (vs MC3T3) DU145 Blue [2]: 5.0
- SI (vs NIH-3T3) DU145 Blue [2]: 6.8
- SI (vs NIH-3T3) DU145 Dark ([2]; dark): >2.2
- GI50 [2, 11]: 45.3 µM

Structure (SMILES): F[P-](F)(F)(F)(F)F.O=C(O)CC[C@H](NC(=O)N[C@@H](CCCCNC(=O)CCn1cc[n+]2[c]1[Ir-3]13([c]4c(sc5ccccc45)-c4cccc[n+]41)([c]1c(sc4ccccc14)-c1cccc[n+]13)[n+]1ccccc1-2)C(=O)O)C(=O)O [III-j]
- consumption of ABDA (1O2 production) [3]: fast complete consumption of ABDA
- depletion of the ABDA absorbance at 380 nm (1O2 production) [3]: fast depletion of the ABDA absorbance at 380 nm
- GI50 [2, 9]: 1.4 µM
- GI50 [2, 10]: 1.35 µM
- Photosensitizing index (PI) [2]: 151.9
- GI50 ([2]; DU145, dark, read-out: GI50): 205 µM
- SI (vs MC3T3) DU145 Blue [2]: 9.3
- SI (vs NIH-3T3) DU145 Blue [2]: 8.0
- SI (vs MC3T3) DU145 Dark ([2]; dark): >1.2
- GI50 [2, 11]: 205 µM

Structure (SMILES): F[P-](F)(F)(F)(F)F.O=C(O)CC[C@H](NC(=O)N[C@@H](CCCCNC(=O)CCn1cc[n+]2[c]1[Ir-3]13([c]4ccccc4-c4sc5ccccc5[n+]41)([c]1ccccc1-c1sc4ccccc4[n+]13)[n+]1ccccc1-2)C(=O)O)C(=O)O [III-k]
- GI50 [2, 9]: 2.2 µM
- GI50 [2, 10]: 2.18 µM
- Photosensitizing index (PI) [2]: 7.5
- GI50 ([2]; DU145, dark, read-out: GI50): 16.3 µM
- SI (vs MC3T3) DU145 Blue [2]: 15.5
- SI (vs NIH-3T3) DU145 Blue [2]: 13.8
- SI (vs NIH-3T3) DU145 Dark ([2]; dark): >6.1
- GI50 [2, 11]: 16.3 µM
- GI50 [4]: 0.31 µM
- GI50 [5]: 1.6 µM

Structure (SMILES): F[P-](F)(F)(F)(F)F.O=C(NCCCn1cc[n+]2[c]1[Ir-3]13([c]4ccccc4-c4c5ccccc5cc[n+]41)([c]1ccccc1-c1c4ccccc4cc[n+]13)[n+]1ccccc1-2)[c-]1cccc1.[Fe+2].c1cc[cH-]c1 [IV-h]
- Photosensitizing index (PI) [6]: 24.6
- SI (vs MC3T3) ([6]; MiapaCa2, blue light): 86.2
- SI (vs NIH-3T3) ([6]; MiapaCa2, blue light): 63.8
- SI (vs NIH-3T3) ([6]; MiapaCa2, dark): 7.8
- GI50 ([6]; MiapaCa2, dark): 1.7 µM

Structure (SMILES): F[P-](F)(F)(F)(F)F.O=C(NCCCn1cc[n+]2[c]1[Ir-3]13([c]4cccc5ccc6ccc[n+]1c6c45)([c]1cccc4ccc5ccc[n+]3c5c14)[n+]1ccccc1-2)[c-]1cccc1.[Fe+2].c1cc[cH-]c1 [IV-i]
- Photosensitizing index (PI) [6]: 5.1
- SI (vs NIH-3T3) ([6]; MiapaCa2, blue light): 48.1
- GI50 ([6]; MiapaCa2, blue light): 0.37 µM

Structure (SMILES): F[P-](F)(F)(F)(F)F.O=C(NCCCn1cc[n+]2[c]1[Ir-3]13([c]4c(sc5ccccc45)-c4cccc[n+]41)([c]1c(sc4ccccc14)-c1cccc[n+]13)[n+]1ccccc1-2)[c-]1cccc1.[Fe+2].c1cc[cH-]c1 [IV-j]
- Photosensitizing index (PI) [6]: 21.9
- SI (vs MC3T3) ([6]; MiapaCa2, blue light): 24.4
- SI (vs MC3T3) ([6]; MiapaCa2, dark): 4.7
- SI (vs NIH-3T3) ([6]; MiapaCa2, dark): 17.9
- consumption of ABDA (1O2 production) [3]: fast complete consumption of ABDA
- depletion of the ABDA absorbance at 380 nm (1O2 production) [3]: fast depletion of the ABDA absorbance at 380 nm

Structure (SMILES): F[P-](F)(F)(F)(F)F.O=C(NCCCn1cc[n+]2[c]1[Ir-3]13([c]4ccccc4-c4sc5ccccc5[n+]41)([c]1ccccc1-c1sc4ccccc4[n+]13)[n+]1ccccc1-2)[c-]1cccc1.[Fe+2].c1cc[cH-]c1 [IV-k]
- Photosensitizing index (PI) [6]: 6.9
- SI (vs MC3T3) ([6]; MiapaCa2, blue light): 15.9
- SI (vs NIH-3T3) ([6]; MiapaCa2, blue light): 36.3
- GI50 ([6]; MiapaCa2, blue light): 0.32 µM
- SI (vs NIH-3T3) ([6]; MiapaCa2, dark): 8.5
- GI50 ([6]; MiapaCa2, dark): 2.2 µM
